Test results taken from ChEMBL document CHEMBL5321294, “Evolution of Slow-Binding Inhibitors Targeting Histone Deacetylase Isoforms” (J Med Chem, 2023).

What was measured:
[1] = biological target: T1, Histone deacetylase 1 (Homo sapiens, UniProt Q13547); assay: Binding affinity to HDAC1 (unknown origin) assessed as binding constant (Kon)
[2] = biological target: T1, Histone deacetylase 1; assay: Binding affinity to HDAC1 (unknown origin) assessed as dissociation constant (Koff)
[3] = biological target: T1, Histone deacetylase 1; assay: Binding affinity to HDAC1 (unknown origin) assessed as inhibition constant
[4] = biological target: T2, Histone deacetylase 3 (Homo sapiens, UniProt O15379); assay: Binding affinity to HDAC3 (unknown origin) assessed as inhibition constant
T2 sequence (O15379 whole entry): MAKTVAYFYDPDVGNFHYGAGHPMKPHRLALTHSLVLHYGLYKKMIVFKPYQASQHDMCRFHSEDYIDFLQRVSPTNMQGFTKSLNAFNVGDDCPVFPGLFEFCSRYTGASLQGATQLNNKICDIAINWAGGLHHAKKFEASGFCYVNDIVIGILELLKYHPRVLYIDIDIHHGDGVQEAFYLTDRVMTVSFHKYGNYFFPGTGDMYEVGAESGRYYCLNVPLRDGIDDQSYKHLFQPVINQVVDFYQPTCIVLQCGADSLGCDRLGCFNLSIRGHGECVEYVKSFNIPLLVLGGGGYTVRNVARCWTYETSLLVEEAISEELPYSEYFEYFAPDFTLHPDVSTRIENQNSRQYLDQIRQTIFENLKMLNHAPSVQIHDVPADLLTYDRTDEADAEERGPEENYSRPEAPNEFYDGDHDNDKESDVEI

[5] = biological target: T1, Histone deacetylase 1
Description: Binding affinity to HDAC1 (unknown origin) using Ac-LGKac-AMC as substrate assessed as half life

[6] = biological target: T3, Histone deacetylase 2 (Homo sapiens, UniProt Q92769)
T3 sequence (Q92769 whole entry): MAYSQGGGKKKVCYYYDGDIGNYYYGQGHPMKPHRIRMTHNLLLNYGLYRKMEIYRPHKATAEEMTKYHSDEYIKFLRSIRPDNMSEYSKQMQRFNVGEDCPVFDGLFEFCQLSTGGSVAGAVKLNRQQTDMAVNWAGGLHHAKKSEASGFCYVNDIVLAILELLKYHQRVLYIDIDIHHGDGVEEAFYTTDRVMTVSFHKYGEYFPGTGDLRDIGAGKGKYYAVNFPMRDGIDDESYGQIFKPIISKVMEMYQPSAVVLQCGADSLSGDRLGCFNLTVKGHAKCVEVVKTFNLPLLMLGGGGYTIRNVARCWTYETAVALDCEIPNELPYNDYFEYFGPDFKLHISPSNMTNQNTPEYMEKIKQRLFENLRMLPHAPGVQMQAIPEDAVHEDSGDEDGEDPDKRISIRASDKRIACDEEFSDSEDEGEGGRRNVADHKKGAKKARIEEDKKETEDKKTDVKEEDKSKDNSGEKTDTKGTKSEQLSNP
Description: Binding affinity to HDAC2 (unknown origin) using Ac-LGKac-AMC as substrate assessed as half life

[7] = biological target: T2, Histone deacetylase 3
Description: Binding affinity to HDAC3 (unknown origin) using Ac-LGKac-AMC as substrate assessed as half life

[8] = biological target: T3, Histone deacetylase 2; remark: listed apart in the source
Description: Binding affinity to HDAC2 (unknown origin) using Ac-LGKac-AMC as substrate assessed as residence time

[9] = biological target: T2, Histone deacetylase 3; assay: Binding affinity to human HDAC3 assessed as binding rate constant (Kon)
[10] = biological target: T2, Histone deacetylase 3; assay: Binding affinity to human HDAC3 assessed as dissociation rate constant (Koff)
[11] = biological target: T1, Histone deacetylase 1; assay: Binding affinity to human HDAC1 assessed as half life
[12] = biological target: T3, Histone deacetylase 2; assay: Binding affinity to human HDAC2 assessed as half life
[13] = biological target: T2, Histone deacetylase 3; assay: Binding affinity to human HDAC3 assessed as half life
[14] = biological target: T3, Histone deacetylase 2; assay: Binding affinity to human HDAC2 assessed as residence time
[15] = biological target: T2, Histone deacetylase 3; assay: Binding affinity to human HDAC3 assessed as residence time
[16] = species on record: Homo sapiens; assay: Selectivity index, ratio of IC50 for Inhibition of human HDAC3 to IC50 for Inhibition of human HDAC1
[17] = species on record: Homo sapiens; assay: Selectivity index, ratio of IC50 for Inhibition of human HDAC3 to Inhibition of human IC50 for HDAC2
[18] = Half life in C57BL/6 mouse brain at 45 mg/kg, ip; format: ADME, organism-based
[19] = biological target: T3, Histone deacetylase 2; remark: listed apart in the source
[20] = biological target: T2, Histone deacetylase 3; remark: listed apart in the source
[21] = biological target: T4, Protein deacetylase HDAC6 (Homo sapiens) (UniProt Q9UBN7); assay: Binding affinity to N-terminal GST-tagged human full length HDAC6 expressed in baculovirus infected Sf9 cells using Fluor-de-Lys Green as substrate assessed as association constant (kon)
T4 sequence (whole entry): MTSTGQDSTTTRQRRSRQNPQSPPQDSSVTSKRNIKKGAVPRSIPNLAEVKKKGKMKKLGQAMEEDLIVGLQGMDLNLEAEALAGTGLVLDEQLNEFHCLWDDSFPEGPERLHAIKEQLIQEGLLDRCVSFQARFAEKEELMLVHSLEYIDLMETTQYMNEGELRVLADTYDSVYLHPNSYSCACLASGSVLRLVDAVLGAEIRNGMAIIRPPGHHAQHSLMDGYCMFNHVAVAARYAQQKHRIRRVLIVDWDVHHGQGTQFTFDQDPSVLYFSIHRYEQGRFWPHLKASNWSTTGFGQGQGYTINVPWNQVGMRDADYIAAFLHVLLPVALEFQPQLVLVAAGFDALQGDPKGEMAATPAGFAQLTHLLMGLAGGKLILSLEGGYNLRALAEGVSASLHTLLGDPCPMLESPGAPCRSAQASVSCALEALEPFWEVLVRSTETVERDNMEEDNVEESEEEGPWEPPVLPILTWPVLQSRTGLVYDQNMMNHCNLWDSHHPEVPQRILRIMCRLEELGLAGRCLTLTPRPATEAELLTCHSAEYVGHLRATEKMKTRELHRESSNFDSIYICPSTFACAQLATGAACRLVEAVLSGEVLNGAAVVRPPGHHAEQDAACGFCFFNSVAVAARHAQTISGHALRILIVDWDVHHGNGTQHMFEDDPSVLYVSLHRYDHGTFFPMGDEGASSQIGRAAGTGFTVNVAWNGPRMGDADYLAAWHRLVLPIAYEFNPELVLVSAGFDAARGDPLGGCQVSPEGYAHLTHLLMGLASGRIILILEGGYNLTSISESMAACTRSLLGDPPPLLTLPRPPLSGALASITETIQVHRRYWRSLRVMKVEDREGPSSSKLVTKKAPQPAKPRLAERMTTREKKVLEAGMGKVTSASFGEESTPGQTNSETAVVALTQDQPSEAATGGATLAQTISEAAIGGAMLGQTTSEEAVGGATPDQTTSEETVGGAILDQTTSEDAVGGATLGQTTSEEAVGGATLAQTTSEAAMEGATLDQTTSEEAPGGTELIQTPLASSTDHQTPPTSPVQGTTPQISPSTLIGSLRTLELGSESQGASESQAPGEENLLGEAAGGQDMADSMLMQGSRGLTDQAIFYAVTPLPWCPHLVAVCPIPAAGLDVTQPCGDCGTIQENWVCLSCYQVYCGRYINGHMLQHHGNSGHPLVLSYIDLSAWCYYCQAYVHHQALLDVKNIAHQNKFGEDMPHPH

[22] = biological target: T4, Protein deacetylase HDAC6 (Homo sapiens); assay: Binding affinity to N-terminal GST-tagged human full length HDAC6 expressed in baculovirus infected Sf9 cells using Fluor-de-Lys Green as substrate assessed as dissociation constant (koff)
[23] = biological target: T4, Protein deacetylase HDAC6 (Homo sapiens); assay: Binding affinity to N-terminal GST-tagged human full length HDAC6 expressed in baculovirus infected Sf9 cells using Fluor-de-Lys Green as substrate assessed as dissociation constant (koff) by jump dilution assay
[24] = biological target: T5, Protein deacetylase HDAC6 (Homo sapiens, UniProt Q9UBN7); assay: Binding affinity to N-terminal GST-tagged human full length HDAC6 expressed in baculovirus infected Sf9 cells using Fluor-de-Lys Green as substrate assessed as inhibition constant
T5 sequence (Q9UBN7 whole entry): T4 sequence (whole entry)

[25] = biological target: T4, Protein deacetylase HDAC6 (Homo sapiens); assay: Binding affinity to N-terminal GST-tagged human full length HDAC6 expressed in baculovirus infected Sf9 cells using Fluor-de-Lys Green as substrate assessed as residence time
[26] = biological target: T4, Protein deacetylase HDAC6 (Homo sapiens); assay: Binding affinity to N-terminal GST-tagged human full length HDAC6 expressed in baculovirus infected Sf9 cells using Fluor-de-Lys Green as substrate assessed as residence time by jump dilution assay
[27] = biological target: T5, Protein deacetylase HDAC6; assay: Inhibition of N-terminal GST-tagged human full length HDAC6 expressed in baculovirus infected Sf9 cells using Fluor-de-Lys Green as substrate
[28] = biological target: T1, Histone deacetylase 1; assay: Inhibition of HDAC1 (unknown origin) measured after 1 hrs by fluorescence based assay
[29] = biological target: T3, Histone deacetylase 2; assay: Inhibition of HDAC2 (unknown origin) measured after 1 hrs by fluorescence based assay
[30] = biological target: T2, Histone deacetylase 3; assay: Inhibition of HDAC3 (unknown origin) measured after 1 hrs by fluorescence based assay
[31] = biological target: T2, Histone deacetylase 3; assay: Inhibition of HDAC3 (unknown origin) measured after 24 hrs by fluorescence based assay
[32] = biological target: T1, Histone deacetylase 1; assay: Binding affinity to human HDAC1 using AcLGK (Ac) -AMC as substrate assessed as residence time
[33] = biological target: T1, Histone deacetylase 1; settings: HEK293T

T1 sequence (Q13547 whole entry): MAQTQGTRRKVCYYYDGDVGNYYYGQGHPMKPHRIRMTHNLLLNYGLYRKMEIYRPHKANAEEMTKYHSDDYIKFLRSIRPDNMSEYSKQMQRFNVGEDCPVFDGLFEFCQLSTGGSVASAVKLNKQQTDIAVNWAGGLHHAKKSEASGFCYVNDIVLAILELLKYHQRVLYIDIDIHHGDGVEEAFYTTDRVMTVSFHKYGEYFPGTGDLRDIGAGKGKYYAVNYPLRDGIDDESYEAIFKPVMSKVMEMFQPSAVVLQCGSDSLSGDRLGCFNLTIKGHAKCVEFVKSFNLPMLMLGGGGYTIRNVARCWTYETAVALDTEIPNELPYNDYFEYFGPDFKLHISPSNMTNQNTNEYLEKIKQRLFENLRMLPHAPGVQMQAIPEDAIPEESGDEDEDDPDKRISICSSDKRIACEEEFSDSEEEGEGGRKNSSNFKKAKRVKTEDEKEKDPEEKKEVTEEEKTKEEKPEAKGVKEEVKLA

Question: Which results are given for `Nc1ccc(-c2ccncc2)cc1NC(=O)N1CCCC1`?
Answer: K [1]: 0.185 min⁻¹ µM⁻¹; K [2]: 0.011 min⁻¹

Question: Which Ki [3] does the source give for `CCC(=O)CCCCC[C@@H]1NC(=O)[C@H]2CCCCN2C(=O)[C@H]([C@@H](C)CC)NC(=O)[C@H](Cc2c[nH]c3ccccc23)NC1=O` here?
Answer: The Ki was 400 nM.

Question: And the Ki [4]?
Answer: The Ki was 600 nM.

Question: Which T1/2 [5] does the source give for `CC(=O)Nc1ccc(C(=O)Nc2ccccc2N)cc1` here?
Answer: The T1/2 was greater than 23.1 h.

Question: And the T1/2 [6]?
Answer: Its T1/2 is greater than 2.32 h.

Question: And the T1/2 [7]?
Answer: Its T1/2 is greater than 50 min.

Question: What about the T1/2 [8] of the same compound?
Answer: Its T1/2 is 3.33 h.

Question: What does the source list for `CC(=O)Nc1ccc(C(=O)Nc2ccc(F)cc2N)cc1`?
Answer: K [9]: 0.3 min⁻¹ µM⁻¹; K [10]: 0.009 min⁻¹; T1/2 [11]: 2.5 min; T1/2 [12]: 13 min; T1/2 [13]: 1.32 h; TIME [14]: 0.3 h; TIME [15]: 1.9 h; Ratio IC50 [16]: > 17; Ratio IC50 [17]: > 17

Question: For `CC(=O)Nc1ccc(C(=O)Nc2cc(-c3cccs3)ccc2N)cc1`, which half-life [18] is on record?
Answer: The half-life was 386 min.

Question: What about the T1/2 [19] of the same compound?
Answer: The T1/2 was greater than 80 h.

Question: And the T1/2 [20]?
Answer: The T1/2 was 20 h.

Question: What does the source list for `FC(F)c1nnc(-c2ccc(Cn3cc(-c4ccc(NC5N=CCN5)cc4)nn3)cc2)o1` (stereo not drawn)?
Answer: K [21]: 9.6 10^5/min/M; K [22]: 4.6 10^-3/min; K [23]: 3.3 10^-3/min; Ki [24]: 4.8 nM; TIME [25]: 3.6 h; TIME [26]: 5.1 h; IC50 [27]: 7.7 nM

Question: Which IC50 [28] does the source give for `O=C(/C=C(\CO)c1ccccc1)c1ccccc1` here?
Answer: The IC50 was 3.68 µM.

Question: What about the IC50 [29] of the same compound?
Answer: The IC50 was 9.19 µM.

Question: And the IC50 [30]?
Answer: Its IC50 is roughly 50 µM.

Question: What about the IC50 [31] of the same compound?
Answer: Its IC50 is roughly 50 µM.

Question: For `Nc1ccc(-c2ccco2)cc1NC(=O)c1ccc(-c2cn(CS(=O)(=O)c3ccccc3)nn2)cc1`, which TIME [32] is on record?
Answer: The TIME was 2.42 h.

Question: With `Cc1ccc(NC(=O)CCCCCC(=O)Nc2ccccc2N)cc1` as the compound, how does the T1/2 [33] read?
Answer: The T1/2 was 1.5 h.
